Tests used:
Test in all cases: KINOMEscan competition binding
Conditions in all cases: compound 10.0 µM
[1] = test system: FLT3 (human), P36888 [R834Q]
[2] = molecular target: MAP3K11 (human) (UniProt Q16584)
[3] = molecular target: STK32C (human) (UniProt Q86UX6)
[4] = molecular target: PDGFRB (human) (UniProt P09619)
[5] = molecular target: TBK1 (human) (UniProt Q9UHD2)
[6] = molecular target: MAP2K7 (human) (UniProt O14733)
[7] = molecular target: AKT3 (human) (UniProt Q9Y243)
[8] = molecular target: TEC (human) (UniProt P42680)
[9] = molecular target: DSTYK (human) (UniProt Q6XUX3)
[10] = molecular target: EPHA1 (human) (UniProt P21709)
[11] = molecular target: ACVRL1 (human) (UniProt P37023)
[12] = molecular target: PIK3CB (human) (UniProt P42338)
[13] = molecular target: ROCK1 (human) (UniProt Q13464)
[14] = molecular target: EPHA5 (human) (UniProt P54756)
[15] = molecular target: LATS2 (human) (UniProt Q9NRM7)
[16] = molecular target: PIK3C2B (human) (UniProt O00750)
[17] = molecular target: STK16 (human) (UniProt O75716)
[18] = molecular target: EPHA7 (human) (UniProt Q15375)
[19] = molecular target: ULK1 (human) (UniProt O75385)
[20] = molecular target: RPS6KA6 KD2 (human) (UniProt Q9UK32)
[21] = test system: CPK1 (P.falciparum)
[22] = molecular target: DCLK3 (human) (UniProt Q9C098)
[23] = molecular target: TTK (human) (UniProt P33981)
[24] = molecular target: EPHA2 (human) (UniProt P29317)
[25] = molecular target: LATS1 (human) (UniProt O95835)
[26] = molecular target: PIP5K1A (human) (UniProt Q99755)
[27] = molecular target: ABL2 (human) (UniProt P42684)
[28] = molecular target: SNRK (human) (UniProt Q9NRH2)
[29] = molecular target: PKMYT1 (human) (UniProt Q99640)
[30] = molecular target: ULK2 (human) (UniProt Q8IYT8)
[31] = molecular target: MAP2K4 (human) (UniProt P45985)
[32] = molecular target: CDC42BPA (human) (UniProt Q5VT25)
[33] = molecular target: RPS6KA4 KD1 (human) (UniProt O75676)
[34] = molecular target: MAP2K5 (human) (UniProt Q13163)
[35] = molecular target: NUAK2 (human) (UniProt Q9H093)
[36] = molecular target: TNNI3K (human) (UniProt Q59H18)
[37] = molecular target: PHKG1 (human) (UniProt Q16816)
[38] = molecular target: DYRK2 (human) (UniProt Q92630)
[39] = molecular target: GRK7 (human) (UniProt Q8WTQ7)
GRK7 (human), sequence (Q8WTQ7 whole entry, looked up): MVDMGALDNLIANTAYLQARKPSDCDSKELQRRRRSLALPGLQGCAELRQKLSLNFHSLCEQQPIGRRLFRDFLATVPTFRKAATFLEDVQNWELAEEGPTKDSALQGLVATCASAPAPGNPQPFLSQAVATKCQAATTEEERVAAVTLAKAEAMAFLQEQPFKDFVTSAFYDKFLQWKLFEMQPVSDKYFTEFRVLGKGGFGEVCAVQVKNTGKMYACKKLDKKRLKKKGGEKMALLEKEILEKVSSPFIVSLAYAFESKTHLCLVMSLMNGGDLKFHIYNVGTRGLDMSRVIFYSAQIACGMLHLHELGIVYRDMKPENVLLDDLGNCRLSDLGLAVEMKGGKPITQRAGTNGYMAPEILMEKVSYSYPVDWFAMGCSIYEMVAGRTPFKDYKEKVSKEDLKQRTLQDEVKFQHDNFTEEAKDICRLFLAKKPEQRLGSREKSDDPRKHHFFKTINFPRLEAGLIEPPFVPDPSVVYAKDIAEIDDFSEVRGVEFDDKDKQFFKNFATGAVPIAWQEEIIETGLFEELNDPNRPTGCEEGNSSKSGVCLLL

STK32C (human), sequence (Q86UX6 whole entry, looked up): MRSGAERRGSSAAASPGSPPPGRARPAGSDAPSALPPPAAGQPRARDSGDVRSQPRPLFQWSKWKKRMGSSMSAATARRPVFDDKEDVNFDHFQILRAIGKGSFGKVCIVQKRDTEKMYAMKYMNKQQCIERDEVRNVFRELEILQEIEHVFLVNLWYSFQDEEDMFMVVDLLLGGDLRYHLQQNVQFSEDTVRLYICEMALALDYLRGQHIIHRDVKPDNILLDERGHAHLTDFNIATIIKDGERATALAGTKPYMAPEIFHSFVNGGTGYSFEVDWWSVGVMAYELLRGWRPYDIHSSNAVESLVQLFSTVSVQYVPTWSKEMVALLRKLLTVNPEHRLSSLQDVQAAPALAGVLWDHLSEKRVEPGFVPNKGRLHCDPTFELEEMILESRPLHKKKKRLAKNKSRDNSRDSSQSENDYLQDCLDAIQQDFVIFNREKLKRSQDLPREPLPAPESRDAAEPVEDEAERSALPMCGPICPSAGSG
RPS6KA6 KD2 (human), sequence (Q9UK32 whole entry, looked up): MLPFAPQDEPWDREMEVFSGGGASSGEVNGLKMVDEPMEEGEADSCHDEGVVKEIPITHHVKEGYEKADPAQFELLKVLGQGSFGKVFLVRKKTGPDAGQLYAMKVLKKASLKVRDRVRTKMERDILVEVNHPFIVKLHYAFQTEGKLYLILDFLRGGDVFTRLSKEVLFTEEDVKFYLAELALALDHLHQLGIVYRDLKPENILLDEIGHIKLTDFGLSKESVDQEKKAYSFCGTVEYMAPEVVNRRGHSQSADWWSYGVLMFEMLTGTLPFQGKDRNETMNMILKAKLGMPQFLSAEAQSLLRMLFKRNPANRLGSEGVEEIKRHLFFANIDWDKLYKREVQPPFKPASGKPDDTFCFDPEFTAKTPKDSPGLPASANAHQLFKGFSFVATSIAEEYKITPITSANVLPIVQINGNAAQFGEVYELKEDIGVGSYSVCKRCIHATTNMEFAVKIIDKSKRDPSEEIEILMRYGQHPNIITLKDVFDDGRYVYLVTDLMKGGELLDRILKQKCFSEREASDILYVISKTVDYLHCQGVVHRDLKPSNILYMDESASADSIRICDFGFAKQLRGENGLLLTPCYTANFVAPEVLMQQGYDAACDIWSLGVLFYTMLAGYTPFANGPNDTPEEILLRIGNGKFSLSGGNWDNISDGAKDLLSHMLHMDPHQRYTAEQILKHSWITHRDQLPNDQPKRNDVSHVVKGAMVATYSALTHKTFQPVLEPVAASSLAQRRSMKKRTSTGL
AKT3 (human), sequence (Q9Y243 whole entry, looked up): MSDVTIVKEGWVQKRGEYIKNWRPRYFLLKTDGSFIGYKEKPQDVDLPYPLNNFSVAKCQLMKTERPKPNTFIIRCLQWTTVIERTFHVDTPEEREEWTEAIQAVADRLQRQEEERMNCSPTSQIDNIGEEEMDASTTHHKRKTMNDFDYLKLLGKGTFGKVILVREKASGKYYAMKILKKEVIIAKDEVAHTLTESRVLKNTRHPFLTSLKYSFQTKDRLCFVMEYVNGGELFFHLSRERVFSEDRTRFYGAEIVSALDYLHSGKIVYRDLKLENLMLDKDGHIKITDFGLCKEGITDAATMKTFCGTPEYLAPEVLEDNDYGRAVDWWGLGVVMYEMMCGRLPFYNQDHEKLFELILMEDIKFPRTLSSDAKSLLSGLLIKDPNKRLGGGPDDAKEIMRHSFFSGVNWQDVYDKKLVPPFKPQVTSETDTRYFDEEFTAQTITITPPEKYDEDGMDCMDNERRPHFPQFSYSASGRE
MAP2K4 (human), sequence (P45985 whole entry, looked up): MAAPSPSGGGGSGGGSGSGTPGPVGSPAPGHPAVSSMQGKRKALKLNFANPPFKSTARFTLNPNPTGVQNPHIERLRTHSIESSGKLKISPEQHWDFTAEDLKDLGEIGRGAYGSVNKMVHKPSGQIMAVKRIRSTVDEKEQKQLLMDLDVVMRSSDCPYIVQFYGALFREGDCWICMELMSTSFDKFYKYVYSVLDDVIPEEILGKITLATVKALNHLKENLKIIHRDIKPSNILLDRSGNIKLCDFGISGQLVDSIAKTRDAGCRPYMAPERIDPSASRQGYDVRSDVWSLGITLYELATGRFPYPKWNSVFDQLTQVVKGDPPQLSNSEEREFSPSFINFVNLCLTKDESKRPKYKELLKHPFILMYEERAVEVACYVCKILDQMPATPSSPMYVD
ABL2 (human), sequence (P42684 whole entry, looked up): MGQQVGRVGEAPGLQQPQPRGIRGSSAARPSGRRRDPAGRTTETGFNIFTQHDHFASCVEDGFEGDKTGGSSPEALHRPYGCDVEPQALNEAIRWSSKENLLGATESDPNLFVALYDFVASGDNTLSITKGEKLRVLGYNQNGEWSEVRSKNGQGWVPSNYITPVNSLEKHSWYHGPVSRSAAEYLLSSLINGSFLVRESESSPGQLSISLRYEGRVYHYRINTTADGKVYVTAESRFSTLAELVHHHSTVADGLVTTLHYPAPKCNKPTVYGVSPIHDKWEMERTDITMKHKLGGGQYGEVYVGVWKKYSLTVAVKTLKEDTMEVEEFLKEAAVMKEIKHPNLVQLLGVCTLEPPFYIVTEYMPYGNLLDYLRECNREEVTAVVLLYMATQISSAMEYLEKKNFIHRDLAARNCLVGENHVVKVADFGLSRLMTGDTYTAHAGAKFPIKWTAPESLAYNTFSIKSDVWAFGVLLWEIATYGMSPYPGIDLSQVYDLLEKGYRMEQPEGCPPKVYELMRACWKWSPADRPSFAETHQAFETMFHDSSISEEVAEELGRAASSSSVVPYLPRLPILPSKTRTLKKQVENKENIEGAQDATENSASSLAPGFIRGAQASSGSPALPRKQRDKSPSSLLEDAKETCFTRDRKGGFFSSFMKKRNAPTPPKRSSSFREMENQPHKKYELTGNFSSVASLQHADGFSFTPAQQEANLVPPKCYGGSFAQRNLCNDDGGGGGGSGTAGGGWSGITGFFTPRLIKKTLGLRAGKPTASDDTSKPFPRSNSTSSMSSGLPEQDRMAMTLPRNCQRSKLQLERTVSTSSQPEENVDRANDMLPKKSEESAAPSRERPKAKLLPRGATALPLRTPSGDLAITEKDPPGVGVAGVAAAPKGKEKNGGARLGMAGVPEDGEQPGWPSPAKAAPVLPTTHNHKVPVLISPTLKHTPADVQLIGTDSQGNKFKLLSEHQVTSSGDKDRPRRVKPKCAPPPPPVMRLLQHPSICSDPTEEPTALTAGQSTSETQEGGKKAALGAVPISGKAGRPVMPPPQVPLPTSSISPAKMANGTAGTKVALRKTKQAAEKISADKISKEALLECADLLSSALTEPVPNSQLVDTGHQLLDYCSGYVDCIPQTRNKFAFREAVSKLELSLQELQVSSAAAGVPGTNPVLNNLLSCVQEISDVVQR
ULK2 (human), sequence (Q8IYT8 whole entry, looked up): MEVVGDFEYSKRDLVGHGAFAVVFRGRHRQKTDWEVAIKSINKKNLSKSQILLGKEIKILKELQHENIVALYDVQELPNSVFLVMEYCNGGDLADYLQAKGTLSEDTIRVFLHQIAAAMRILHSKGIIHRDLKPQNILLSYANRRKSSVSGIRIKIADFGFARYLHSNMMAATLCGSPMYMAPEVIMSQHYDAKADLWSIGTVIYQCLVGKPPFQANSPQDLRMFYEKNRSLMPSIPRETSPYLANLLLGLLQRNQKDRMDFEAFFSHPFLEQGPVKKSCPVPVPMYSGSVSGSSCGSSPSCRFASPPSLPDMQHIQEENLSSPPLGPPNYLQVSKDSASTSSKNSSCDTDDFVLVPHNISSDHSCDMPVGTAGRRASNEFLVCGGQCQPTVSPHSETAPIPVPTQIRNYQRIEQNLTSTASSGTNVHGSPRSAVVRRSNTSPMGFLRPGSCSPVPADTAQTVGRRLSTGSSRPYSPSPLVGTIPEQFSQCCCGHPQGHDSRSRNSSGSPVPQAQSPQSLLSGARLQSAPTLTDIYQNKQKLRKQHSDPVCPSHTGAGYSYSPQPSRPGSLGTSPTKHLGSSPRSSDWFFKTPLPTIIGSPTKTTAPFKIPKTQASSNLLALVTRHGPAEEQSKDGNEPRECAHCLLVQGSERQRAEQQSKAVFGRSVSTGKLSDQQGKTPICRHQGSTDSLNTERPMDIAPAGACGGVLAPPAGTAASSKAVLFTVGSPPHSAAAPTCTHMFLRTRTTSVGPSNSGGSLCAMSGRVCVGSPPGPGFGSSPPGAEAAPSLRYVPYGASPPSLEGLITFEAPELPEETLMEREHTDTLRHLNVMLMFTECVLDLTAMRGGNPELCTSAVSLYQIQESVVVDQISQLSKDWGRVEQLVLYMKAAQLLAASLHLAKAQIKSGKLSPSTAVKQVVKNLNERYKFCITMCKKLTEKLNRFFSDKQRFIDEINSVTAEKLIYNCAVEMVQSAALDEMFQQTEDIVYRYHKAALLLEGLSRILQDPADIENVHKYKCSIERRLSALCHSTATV

O=C1NC(=O)/C(=C/c2ccc3nccc(-c4ccncc4)c3c2)S1
kinase still bound, per cent of control [1]: 90%
kinase still bound, per cent of control [2]: 98%
kinase still bound, per cent of control [3]: 96%
kinase still bound, per cent of control [4]: 55%
kinase still bound, per cent of control [5]: 29%
kinase still bound, per cent of control [6]: 38%
kinase still bound, per cent of control [7]: 100%
kinase still bound, per cent of control [8]: 73%
kinase still bound, per cent of control [9]: 61%
kinase still bound, per cent of control [10]: 85%
kinase still bound, per cent of control [11]: 85%
kinase still bound, per cent of control [12]: 7.1%
kinase still bound, per cent of control [13]: 51%
kinase still bound, per cent of control [14]: 91%
kinase still bound, per cent of control [15]: 100%
kinase still bound, per cent of control [16]: 0.15%
kinase still bound, per cent of control [17]: 4.9%
kinase still bound, per cent of control [18]: 88%
kinase still bound, per cent of control [19]: 74%
kinase still bound, per cent of control [20]: 5.2%
kinase still bound, per cent of control [21]: 11%
kinase still bound, per cent of control [22]: 11%
kinase still bound, per cent of control [23]: 19%
kinase still bound, per cent of control [24]: 95%
kinase still bound, per cent of control [25]: 80%
kinase still bound, per cent of control [26]: 48%
kinase still bound, per cent of control [27]: 77%
kinase still bound, per cent of control [28]: 100%
kinase still bound, per cent of control [29]: 78%
kinase still bound, per cent of control [30]: 65%
kinase still bound, per cent of control [31]: 9.6%
kinase still bound, per cent of control [32]: 90%
kinase still bound, per cent of control [33]: 79%
kinase still bound, per cent of control [34]: 46%
kinase still bound, per cent of control [35]: 36%
kinase still bound, per cent of control [36]: 79%
kinase still bound, per cent of control [37]: 31%
kinase still bound, per cent of control [38]: 5.4%
kinase still bound, per cent of control [39]: 5.4%

CN(C)C/C=C/C(=O)Nc1ccc(C(=O)Nc2cccc(Nc3nccc(-c4cccnc4)n3)c2)cc1
kinase still bound, per cent of control [1]: 83%
kinase still bound, per cent of control [2]: 100%
kinase still bound, per cent of control [3]: 100%
kinase still bound, per cent of control [4]: 3.6%
kinase still bound, per cent of control [5]: 38%
kinase still bound, per cent of control [6]: 80%
kinase still bound, per cent of control [7]: 100%
kinase still bound, per cent of control [8]: 100%
kinase still bound, per cent of control [9]: 100%
kinase still bound, per cent of control [10]: 76%
kinase still bound, per cent of control [11]: 97%
kinase still bound, per cent of control [12]: 100%
kinase still bound, per cent of control [13]: 48%
kinase still bound, per cent of control [14]: 97%
kinase still bound, per cent of control [15]: 86%
kinase still bound, per cent of control [16]: 100%
kinase still bound, per cent of control [17]: 1.2%
kinase still bound, per cent of control [18]: 100%
kinase still bound, per cent of control [19]: 97%
kinase still bound, per cent of control [20]: 97%
kinase still bound, per cent of control [21]: 100%
kinase still bound, per cent of control [22]: 100%
kinase still bound, per cent of control [23]: 77%
kinase still bound, per cent of control [24]: 97%
kinase still bound, per cent of control [25]: 100%
kinase still bound, per cent of control [26]: 34%
kinase still bound, per cent of control [27]: 100%
kinase still bound, per cent of control [28]: 66%
kinase still bound, per cent of control [29]: 100%
kinase still bound, per cent of control [30]: 99%
kinase still bound, per cent of control [31]: 9.8%
kinase still bound, per cent of control [32]: 100%
kinase still bound, per cent of control [33]: 100%
kinase still bound, per cent of control [34]: 41%
kinase still bound, per cent of control [35]: 30%
kinase still bound, per cent of control [36]: 100%
kinase still bound, per cent of control [37]: 96%
kinase still bound, per cent of control [38]: 29%
kinase still bound, per cent of control [39]: 98%

C=CC(=O)Nc1cc(-n2c(=O)ccc3cnc4ccc(-c5cn[nH]c5)cc4c32)ccc1C
kinase still bound, per cent of control [1]: 12%
kinase still bound, per cent of control [2]: 100%
kinase still bound, per cent of control [3]: 100%
kinase still bound, per cent of control [4]: 5.6%
kinase still bound, per cent of control [5]: 100%
kinase still bound, per cent of control [6]: 14%
kinase still bound, per cent of control [7]: 100%
kinase still bound, per cent of control [8]: 6%
kinase still bound, per cent of control [9]: 70%
kinase still bound, per cent of control [10]: 94%
kinase still bound, per cent of control [11]: 42%
kinase still bound, per cent of control [12]: 62%
kinase still bound, per cent of control [13]: 94%
kinase still bound, per cent of control [14]: 100%
kinase still bound, per cent of control [15]: 53%
kinase still bound, per cent of control [16]: 53%
kinase still bound, per cent of control [17]: 52%
kinase still bound, per cent of control [18]: 99%
kinase still bound, per cent of control [19]: 87%
kinase still bound, per cent of control [20]: 67%
kinase still bound, per cent of control [21]: 11%
kinase still bound, per cent of control [22]: 100%
kinase still bound, per cent of control [23]: 21%
kinase still bound, per cent of control [24]: 85%
kinase still bound, per cent of control [25]: 100%
kinase still bound, per cent of control [26]: 44%
kinase still bound, per cent of control [27]: 86%
kinase still bound, per cent of control [28]: 100%
kinase still bound, per cent of control [29]: 81%
kinase still bound, per cent of control [30]: 81%
kinase still bound, per cent of control [31]: 14%
kinase still bound, per cent of control [32]: 97%
kinase still bound, per cent of control [33]: 100%
kinase still bound, per cent of control [34]: 0.3%
kinase still bound, per cent of control [35]: 46%
kinase still bound, per cent of control [36]: 100%
kinase still bound, per cent of control [37]: 58%
kinase still bound, per cent of control [38]: 0.6%
kinase still bound, per cent of control [39]: 52%

CNC(=O)c1cc(Oc2ccc(NC(=O)Nc3ccc(Cl)c(C(F)(F)F)c3)cc2)ccn1
kinase still bound, per cent of control [1]: 50%
kinase still bound, per cent of control [2]: 99%
kinase still bound, per cent of control [3]: 100%
kinase still bound, per cent of control [4]: 0%
kinase still bound, per cent of control [5]: 100%
kinase still bound, per cent of control [6]: 88%
kinase still bound, per cent of control [7]: 100%
kinase still bound, per cent of control [8]: 100%
kinase still bound, per cent of control [9]: 100%
kinase still bound, per cent of control [10]: 20%
kinase still bound, per cent of control [11]: 77%
kinase still bound, per cent of control [12]: 100%
kinase still bound, per cent of control [13]: 74%
kinase still bound, per cent of control [14]: 30%
kinase still bound, per cent of control [15]: 85%
kinase still bound, per cent of control [16]: 92%
kinase still bound, per cent of control [17]: 100%
kinase still bound, per cent of control [18]: 25%
kinase still bound, per cent of control [19]: 100%
kinase still bound, per cent of control [20]: 38%
kinase still bound, per cent of control [21]: 0.95%
kinase still bound, per cent of control [22]: 75%
kinase still bound, per cent of control [23]: 15%
kinase still bound, per cent of control [24]: 18%
kinase still bound, per cent of control [25]: 79%
kinase still bound, per cent of control [26]: 100%
kinase still bound, per cent of control [27]: 35%
kinase still bound, per cent of control [28]: 100%
kinase still bound, per cent of control [29]: 94%
kinase still bound, per cent of control [30]: 89%
kinase still bound, per cent of control [31]: 100%
kinase still bound, per cent of control [32]: 95%
kinase still bound, per cent of control [33]: 85%
kinase still bound, per cent of control [34]: 0.3%
kinase still bound, per cent of control [35]: 100%
kinase still bound, per cent of control [36]: 19%
kinase still bound, per cent of control [37]: 90%
kinase still bound, per cent of control [38]: 95%
kinase still bound, per cent of control [39]: 100%

Reference: the kinase profiling compilation of Christmann-Franck et al. (2016)
